Earlier results, collected in patent publication US20240173256A1, “HDL MIMICKING TARGETED DRUG DELIVERY SYSTEM FOR THE TREATMENT OF SOLID TUMORS” (University of North Texas Health Science Center, priority 2022, published 2024).
Read-outs that look alike come from different tables or passages of the source.

Tests used:
[1] = rodents
[2] = patients

Structure (SMILES)	Cardiotoxicity [1]	Incidence of congestive heart failure ([2]; 400 mg/m^2) [%]	Incidence of congestive heart failure ([2]; 550 mg/m^2) [%]	Incidence of congestive heart failure ([2]; 700 mg/m^2) [%]
CCCCC(=O)OCC(=O)[C@]1(O)Cc2c(O)c3c(c(O)c2[C@@H](O[C@H]2C[C@H](NCc4ccccc4)[C@H](O)[C@H](C)O2)C1)C(=O)c1c(OC)cccc1C3=O [AD 198, N-Benzyladriamycin-14-valerate]	no significant cardiotoxicity			
COc1cccc2c1C(=O)c1c(O)c3c(c(O)c1C2=O)C[C@@](O)(C(=O)CO)C[C@@H]3O[C@H]1C[C@H](N)[C@H](O)[C@H](C)O1 [doxorubicin]	ventricular damage proportionate to dosage	4.7	26	48
